This passage reports IC50 results from BindingDB's records for doi:10.1016/j.bioorg.2016.07.011 (Universiti Teknologi Mara (Uitm), 2016).

pIC50: −log10 of the molar value.

In this assay the target is Carbonic anhydrase 2 (Bos taurus, UniProt P00921). The assay can be described thus: Carbonic Anhydrase (bCAII) Inhibition Assay. The following applies: pH 7.2. The procedure: This was assay performed using buffer containing Tris and HEPES at the pH of 7.2-7.9 and a total concentration of 20 mM. 96-well plates were filled with 140 µL of Tris-HEPES solution, 20 µL of bovine erythrocyte carbonic anhydrase II solution (0.1-0.2 mg/2000 mL), and 20 µL of 0.7 mM para-nitrophenyl acetate (diluted in ethanol). Test compounds were incubated at 25-28 °C for 15 min prior to addition of para-nitrophenyl acetate, which starts the reaction. The reaction was allowed to taking place for 30 min at 25-28 °C. All compounds tested in triplicate at different concentration. The amount of product that forms during thereaction monitored at 400 nm after 30 min using SPECTRA-max 340 spectrophotometer, Molecular Devices (USA).
Chain of Carbonic anhydrase 2 (P00921 whole entry): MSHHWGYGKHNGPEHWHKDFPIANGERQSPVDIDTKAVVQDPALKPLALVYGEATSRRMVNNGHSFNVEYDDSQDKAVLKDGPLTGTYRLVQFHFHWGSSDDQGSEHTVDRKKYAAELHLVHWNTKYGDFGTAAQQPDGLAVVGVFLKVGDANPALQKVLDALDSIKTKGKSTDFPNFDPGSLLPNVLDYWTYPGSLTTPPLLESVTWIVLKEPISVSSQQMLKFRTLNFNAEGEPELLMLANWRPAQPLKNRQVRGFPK
One may read the pIC50 as −log10 of the IC50, conventionally taken in molar units. `O=S(=O)(Nc1ccc(C(c2c[nH]c3ccc(Cl)cc23)c2c[nH]c3ccc(Cl)cc23)cc1)c1ccc(Cl)cc1` [N-(4-(bis(5-chloro-1H-indol-3-yl)methyl)phenyl)-4-chlorobenzenesulfonamide (5l)]: the pIC50 is 4.34.
`O=S(=O)(Nc1ccc(C(c2c[nH]c3ccc(Cl)cc23)c2c[nH]c3ccc(Cl)cc23)cc1)c1cc(Cl)c(Cl)cc1Cl` [N-(4-(bis(5-chloro-1H-indol-3-yl)methyl)phenyl)-2,4,5-trichlorobenzenesulfonamide (5f)] had a pIC50 of 4.79.
The result for `O=[N+]([O-])c1ccccc1S(=O)(=O)Nc1ccc(C(c2c[nH]c3ccc(Br)cc23)c2c[nH]c3ccc(Br)cc23)cc1` [N-(4-(bis(5-bromo-1H-indol-3-yl)methyl)phenyl)-2-nitrobenzenesulfonamide (4d)] reads 4.19; that for `O=[N+]([O-])c1ccc(S(=O)(=O)Nc2ccc(C(c3c[nH]c4ccc(Br)cc34)c3c[nH]c4ccc(Br)cc34)cc2)c([N+](=O)[O-])c1` [N-(4-(bis(5-bromo-1H-indol-3-yl)methyl)phenyl)-2,4-dinitrobenzenesulfonamide (4g)], 4.54.
The compound `COc1ccc(Cl)cc1S(=O)(=O)Nc1ccc(C(c2c[nH]c3ccc(Cl)cc23)c2c[nH]c3ccc(Cl)cc23)cc1` [N-(4-(bis(5-chloro-1H-indol-3-yl)methyl)phenyl)-5-chloro-2-methoxybenzene sulfonamide (5e)] had a negative logarithm of the IC50 (pIC50) of 3.75.
For the compound `Cc1ccc([N+](=O)[O-])cc1S(=O)(=O)Nc1ccc(C(c2c[nH]c3ccc(Br)cc23)c2c[nH]c3ccc(Br)cc23)cc1` [N-(4-(bis(5-bromo-1H-indol-3-yl)methyl)phenyl)-2-methyl-5-nitrobenzenesulfonamide (4i)], the pIC50 was 4.35. Against the preceding compound, the pIC50 is 0.60 log units higher.
To `O=[N+]([O-])c1ccc(S(=O)(=O)Nc2ccc(C(c3c[nH]c4ccc(Cl)cc34)c3c[nH]c4ccc(Cl)cc34)cc2)c([N+](=O)[O-])c1` [N-(4-(bis(5-chloro-1H-indol-3-yl)methyl)phenyl)-2,4-dinitrobenzenesulfonamide (5g)] belongs 4.81; to `O=S(=O)(Nc1ccc(C(c2c[nH]c3ccccc23)c2c[nH]c3ccccc23)cc1)c1cc(Cl)cc(Cl)c1O` [3,5-Dichloro-N-(4-(di(1H-indol-3-yl)methyl)phenyl)-2-hydroxybenzenesulfonamide (3k)], 4.24.
`O=[N+]([O-])c1ccc(S(=O)(=O)Nc2ccc(C(c3c[nH]c4ccc(Br)cc34)c3c[nH]c4ccc(Br)cc34)cc2)cc1` [N-(4-(bis(5-bromo-1H-indol-3-yl)methyl)phenyl)-4-nitrobenzenesulfonamide (4b)] gave a pIC50 of 4.19.
The result for `O=[N+]([O-])c1cc(S(=O)(=O)Nc2ccc(C(c3c[nH]c4ccc(Br)cc34)c3c[nH]c4ccc(Br)cc34)cc2)ccc1Cl` [N-(4-(bis(5-bromo-1H-indol-3-yl)methyl)phenyl)-4-chloro-3-nitrobenzenesulfonamide (4h)] reads 4.08.
The compound `O=[N+]([O-])c1ccccc1S(=O)(=O)Nc1ccc(C(c2c[nH]c3ccc(Cl)cc23)c2c[nH]c3ccc(Cl)cc23)cc1` [N-(4-(bis(5-chloro-1H-indol-3-yl)methyl)phenyl)-2-nitrobenzenesulfonamide (5d)] showed a pIC50 of 4.35.
In turn, `O=S(=O)(Nc1ccc(C(c2c[nH]c3ccc(Br)cc23)c2c[nH]c3ccc(Br)cc23)cc1)c1cc(Cl)cc(Cl)c1O` [N-(4-(bis(5-bromo-1H-indol-3-yl)methyl)phenyl)-3,5-dichloro-2-hydroxybenzenesulfonamide (4k)] had a pIC50 of 4.73. This pIC50 is 0.38 log units higher than that of the compound before.
The result for `Cc1ccc([N+](=O)[O-])cc1S(=O)(=O)Nc1ccc(C(c2c[nH]c3ccc(Cl)cc23)c2c[nH]c3ccc(Cl)cc23)cc1` [N-(4-(bis(5-chloro-1H-indol-3-yl)methyl)phenyl)-2-methyl-5-nitrobenzenesulfonamide (5i)] reads 4.84.
To `O=S(=O)(Nc1ccc(C(c2c[nH]c3ccc(Br)cc23)c2c[nH]c3ccc(Br)cc23)cc1)c1cc(Cl)c(Cl)cc1Cl` [N-(4-(bis(5-bromo-1H-indol-3-yl)methyl)phenyl)-2,4,5-trichlorobenzenesulfonamide (4f)] belongs 4.39; to `O=S(=O)(Nc1ccc(C(c2c[nH]c3ccc(Cl)cc23)c2c[nH]c3ccc(Cl)cc23)cc1)c1cc(Cl)cc(Cl)c1O` [N-(4-(bis(5-chloro-1H-indol-3-yl)methyl)phenyl)-3,5-dichloro-2-hydroxybenzenesulfonamide (5k)], 4.69; to `O=S(=O)(Nc1ccc(C(c2c[nH]c3ccc(Br)cc23)c2c[nH]c3ccc(Br)cc23)cc1)c1ccc2ccccc2c1` [N-(4-(bis(5-bromo-1H-indol-3-yl)methyl)phenyl)naphthalene-2-sulfonamide (4c)], 4.04.
To `O=[N+]([O-])c1ccccc1S(=O)(=O)Nc1ccc(C(c2c[nH]c3ccccc23)c2c[nH]c3ccccc23)cc1` [N-(4-(di(1H-indol-3-yl)methyl)phenyl)-2-nitrobenzenesulfonamide (3d)] belongs 4.44.
In turn, `O=[N+]([O-])c1cc(S(=O)(=O)Nc2ccc(C(c3c[nH]c4ccc(Cl)cc34)c3c[nH]c4ccc(Cl)cc34)cc2)ccc1Cl` [N-(4-(bis(5-chloro-1H-indol-3-yl)methyl)phenyl)-4-chloro-3-nitrobenzenesulfonamide (5h)] gave a pIC50 of 4.16.
